Key:
Type in all cases: cell-based
[1] = tested on: CCNE1-amplified OVCAR3 cells; test: Cell growth inhibition of CCNE1-amplified OVCAR3 cells (CellTiter-Glo); conditions: Homo sapiens, OVCAR-3, 144 h, 6 days
Protocol: Cell Growth Inhibition of CCNE1-Amplified OVCAR3 Cells
(§1) OVCAR3 cells were seeded in 96-well plates at 2000 cells/well in 90 μl of RPM11640 growth medium containing 10% FBS and 1% Penicillin Streptomycin, and then incubated at 37° C. overnight. The following day, the test compound was administered to the cells by using 1000× compound stock solution prepared in DMSO at various concentrations. 1000× compound stock solution was first diluted in culturing medium to 10x, then 10 uL compound medium was added to each well in the cell plates. After administration of the compound, the cells were then incubated at 37° C. for 6 days. Upon completion, the plates were equilibrated at room temperature for approximately 10 minutes. 100 ul of CellTiter-Glo® Reagent (Promega) was added to each well. The plates were then incubated at room temperature for 10 minutes and luminescence was recorded by EnSpire plate reader (PerkinElmer).

[2] = tested on: Phospho-Rb (Ser807/811) in OVCAR3 cells; test: Phospho-Rb expression inhibition in OVCAR3 cells quantified by In Cell Western; conditions: Homo sapiens, OVCAR-3, 24 hours, read-out: OVCAR-3 pRb IC50
Protocol: Phospho-Rb Expression Inhibition in OVCAR3 Cells Quantified by in Cell Western
OVCAR3 cells were obtained from American Type Culture Collection (ATCC, HTB-161). OVCAR3 cells were plated in 96-well plates (VWR #10062-900, or Corning #3904) in 90 uL culture medium at a density of 20,000 cells/well in the RPM11640 growth medium containing 10% FBS and 1% Penicillin Streptomycin, and then incubated at 37° C. overnight. The following day, the test compound was administered to the cells by using 1000× compound stock solution prepared in DMSO at various concentrations. 1000× compound stock solution was first diluted in culturing medium to 10x, then 10 uL compound medium was added to each well in the cell plates. After administration of the compound, the cells were then incubated at 37° C. for 24 hours. Upon completion, the cells were washed with PBS briefly. 150 uL/well of 4% formaldehyde was added and the plates were incubated at room temperature for 20 mins. The cells were washed with PBS briefly, and permeabilized with 150 uL/well of ice cold 100% methanol for 10 mins. The cells were washed with PBS briefly and blocked with 100 uL/well LI-COR blocking buffer for 1 hr at room temperature with gentle shaking. The cells were incubated overnight at 4° C. with 50 uL primary antibody rabbit anti-Phospho-Rb (Ser807/811) (1:500, Cell Signaling, #8516) and anti-Rb (1:200, Santa Cruz, sc-73598) diluted in Intercept Blocking Buffer (LI-COR, #927-60001) containing 0.1% Tween 20. The next day, the cells were washed with 200 uL PBS containing 0.1% Tween 20, 5×5 mins at room temperature with gentle shaking, and incubated with 50 uL secondary antibody, IRDye® 800CW Goat anti-Rabbit IgG (1:1000, LI-COR, #926-32211) and IRDye® 680RD Goat anti-Mouse IgG (1:1000, LI-COR, #926-68070), in LI-COR blocking buffer with 0.2% Tween 20 for 1 hr at room temperature with gentle shaking. The cells were washed with 200 uL PBS containing 0.1% Tween 20, 5×5 mins at room temperature with gentle shaking. The cells were washed with PBS for 5 mins. 100 uL fresh PBS was added to each well and the plates were imaged on a LI-COR Odyssey CLX plate reader.

[3] = tested on: CCNE1-normal SKOV3 cells; test: Cell growth inhibition of CCNE1-normal SKOV3 cells (CellTiter-Glo); conditions: Homo sapiens, SK-OV-3, 144 h, 6 days
Protocol: Cell Growth Inhibition of CCNE1-Normal SKOV3 Cells
as §1, with “SKOV3 cells were obtained from American Type Culture Collection (ATCC, HTB-77). SKOV3” for “OVCAR3”, “1000” for “2000”

IC50 [1] | IC50 [2] | Structure (SMILES) | IC50 [3]
10 to 50 nM | 2 to 10 nM | CC1CCCOc2cc(ccn2)Nc2cc([nH]n2)[C@H]2CC[C@H](C2)OC(=O)N1 (mixture of isomers) [Compound 8, (1^1S,1^3R,Z)-9-methyl-2^1H-5,12-dioxa-3,10-diaza-4(4,2)-pyridina-2(3,5)-pyrazola-1(1,3)-cyclopentanacyclododecaphan-11-one] | > 1250 nM
50 to 250 nM | 10 to 50 nM | O=C1NC2CC(C2)CC(F)(F)c2cc(ccn2)Nc2cc(n[nH]2)[C@H]2CC[C@H](C2)O1 (single isomer, unassigned) [Compound 169, (1^1S,1^3R,7^1R,7^3S,Z)-5,5-difluoro-2^1H-10-oxa-3,8-diaza-4(4,2)-pyridina-2(3,5)-pyrazola-1(1,3)-cyclopentana-7(1,3)-cyclobutanacyclodecaphan-9-one] | > 1250 nM
10 to 50 nM | 10 to 50 nM | O=C1NCCCCOc2cc(ccn2)Nc2cc([nH]n2)[C@H]2CC[C@H](C2)O1 [Compound 1, (1^1S,1^3R,Z)-2^1H-5,12-dioxa-3,10-diaza-4(4,2)-pyridina-2(3,5)-pyrazola-1(1,3)-cyclopentanacyclododecaphan-11-one] | > 1250 nM
50 to 250 nM | 10 to 50 nM | O=C1NCCCCCOc2cc(ccn2)Nc2cc([nH]n2)[C@H]2CC[C@H](C2)O1 [Compound 3, (1^1S,1^3R,Z)-2^1H-5,13-dioxa-3,11-diaza-4(4,2)-pyridina-2(3,5)-pyrazola-1(1,3)-cyclopentanacyclotridecaphan-12-one] | > 1250 nM
50 to 250 nM | 50 to 250 nM | O=C1NC23CC(COc4cc(ccn4)Nc4cc([nH]n4)[C@H]4CC[C@H](C4)O1)(C2)C3 [Compound 18, (1^1S,1^3R,Z)-2^1H-5,10-dioxa-3,8-diaza-4(4,2)-pyridina-2(3,5)-pyrazola-7(1,3)-bicyclo[1.1.1]pentana-1(1,3)-cyclopentanacyclodecaphan-9-one] | > 1250 nM
≤ 2 nM | ≤ 2 nM | O=C1NC23CC(CCOc4cc(ccn4)Nc4cc([nH]n4)[C@H]4CC[C@H](C4)O1)(C2)C3 [Compound 22, (1^1S,1^3R,Z)-2^1H-5,11-dioxa-3,9-diaza-4(4,2)-pyridina-2(3,5)-pyrazola-8(1,3)-bicyclo[1.1.1]pentana-1(1,3)-cyclopentanacycloundecaphan-10-one] | 10 to 50 nM
10 to 50 nM | 10 to 50 nM | O=C1NCCCOC2(CC2)c2cc(ccn2)Nc2cc([nH]n2)[C@H]2CC[C@H](C2)O1 [Compound 26, (1'S,3′R,Z)-spiro[cyclopropane-1,5′-6,12-dioxa-3,10-diaza-4(4,2)-pyridina-2(3,5)-pyrazola-1(1,3)-cyclopentanacyclododecaphan]-11′-one] | 250 to 1250 nM
50 to 250 nM | 10 to 50 nM | O=C1NC2(CCCOc3cc(ccn3)Nc3cc([nH]n3)[C@H]3CC[C@H](C3)O1)CC2 [Compound 33, (1'S,3′R,Z)-spiro[cyclopropane-1 9′-5,12-dioxa-3,10-diaza-4(4,2)-pyridina-2(3,5)-pyrazola-1(1,3)-cyclopentanacyclododecaphan]-11′-one] | > 1250 nM
> 250 nM | 50 to 250 nM | [2H]C1([2H])Oc2cc(ccn2)Nc2[nH]nc(c2Cl)[C@H]2CC[C@H](C2)OC(=O)NC2CC1C2 [Compound 222, (1^1S,1^3R,7^1R,7^3S,E)-24-chloro-2^1H-5,10-dioxa-3,8-diaza-4(4,2)-pyridina-2(3,5)-pyrazola-1(1,3)-cyclopentana-7(1,3)-cyclobutanacyclodecaphan-9-one-6,6-d2] | 
≤ 2 nM | ≤ 2 nM | C[C@H]1CCCOc2cncc(n2)Nc2cc(n[nH]2)[C@H]2CC[C@H](C2)OC(=O)N1 [Compound 233, (1^1S,1^3R,9S,Z)-9-methyl-2^1H-5,12-dioxa-3,10-diaza-4(2,6)-pyrazina-2(3,5)-pyrazola-1(1,3)-cyclopentanacyclododecaphan-11-one] | 
10 to 50 nM | 2 to 10 nM | C[C@H]1CCCOc2cncc(n2)Nc2[nH]nc(c2F)[C@H]2CC[C@H](C2)OC(=O)N1 [Compound 234, (1^1S,1^3R,9S,E)-2^4-fluoro-9-methyl-2^1H-5,12-dioxa-3,10-diaza-4(2,6)-pyrazina-2(3,5)-pyrazola-1(1,3)-cyclopentanacyclododecaphan-11-one] | 
≤ 2 nM | ≤ 2 nM | O=C1NC2CC(COc3cncc(n3)Nc3cc(n[nH]3)[C@H]3CC[C@H](C3)O1)C2 [Compound 235, (1^1S,1^3R,7^1R,7^3S,Z)-2^1H-5,10-dioxa-3,8-diaza-4(2,6)-pyrazina-2(3,5)-pyrazola-1(1,3)-cyclopentana-7(1,3)-cyclobutanacyclodecaphan-9-one] | 
10 to 50 nM | 2 to 10 nM | O=C1NC2CC(COc3cncc(n3)Nc3[nH]nc(c3F)[C@H]3CC[C@H](C3)O1)C2 [Compound 236, (1^1S,1^3R,7^1R,7^3S,E)-2^4-fluoro-2^1H-5,10-dioxa-3,8-diaza-4(2,6)-pyrazina-2(3,5)-pyrazola-1(1,3)-cyclopentana-7(1,3)-cyclobutanacyclodecaphan-9-one] | 
50 to 250 nM | 10 to 50 nM | C[C@H]1CCCOc2cc(ccn2)Nc2[nH]nc(c2F)C2C[C@@H](F)[C@H](C2)OC(=O)N1 [Compound 237, (1^1R,1^3S,1^4R,9S,E)-1^4,2^4-difluoro-9-methyl-2^1H-5,12-dioxa-3,10-diaza-4(4,2)-pyridina-2(3,5)-pyrazola-1(1,3)-cyclopentanacyclododecaphan-11-one] | 
50 to 250 nM | 10 to 50 nM | C[C@H]1CCCOc2cc(ccn2)Nc2[nH]nc(c2F)C2C[C@H](F)[C@@H](C2)OC(=O)N1 [Compound 238, (1^1S,1^3R,1^4S,9S,E)-1^4,2^4-difluoro-9-methyl-2^1H-5,12-dioxa-3,10-diaza-4(4,2)-pyridina-2(3,5)-pyrazola-1(1,3)-cyclopentanacyclododecaphan-11-one] | 
≤ 2 nM | ≤ 2 nM | C[C@H]1CCCOc2nccc(n2)Nc2cc(n[nH]2)[C@H]2CC[C@H](C2)OC(=O)N1 [Compound 241, (1^1S,1^3R,9S,Z)-9-methyl-2^1H-5,12-dioxa-3,10-diaza-4(4,2)-pyrimidina-2(3,5)-pyrazola-1(1,3)-cyclopentanacyclododecaphan-11-one] | 
10 to 50 nM | 2 to 10 nM | C[C@H]1CCCOc2nccc(n2)Nc2[nH]nc(c2F)[C@H]2CC[C@H](C2)OC(=O)N1 [Compound 256, (1^1S,1^3R,9S,E)-2^4-fluoro-9-methyl-2^1H-5,12-dioxa-3,10-diaza-4(4,2)-pyrimidina-2(3,5)-pyrazola-1(1,3)-cyclopentanacyclododecaphan-11-one] | 
> 250 nM | > 250 nM | C[C@@H]1CC23CC(C2)(C3)NC(=O)O[C@@H]2CC[C@@H](C2)c2cc(n[nH]2)Nc2cc(nc(C(F)F)c2)O1 [compound 24] | 
> 250 nM | > 250 nM | C[C@H]1CC23CC(C2)(C3)NC(=O)O[C@@H]2CC[C@@H](C2)c2cc(n[nH]2)Nc2cc(nc(C(F)F)c2)O1 [compound 25] | 
